In ChEMBL document CHEMBL2150993, “Substituted thiazoles VII. Synthesis and antitumor activity of certain 2-(substituted amino)-4-phenyl-1,3-thiazole analogs” (2012):
The source made the active and inactive calls. The calls are words filed in the database; no cut-off is given here.

Columns and labels:
Assay type in all cases: functional
A549 = assay: Growth inhibition of human A549 cells after 48 hrs by cell counting analysis; settings: at 10 µM
SK-MEL-28 = assay: Growth inhibition of human SK-MEL-28 cells after 48 hrs by cell counting analysis; settings: at 10 µM
HCC 2998 = assay: Growth inhibition of human HCC2998 cells after 48 hrs by cell counting analysis; settings: at 10 µM
OVCAR-4 = assay: Growth inhibition of human OVCAR4 cells after 48 hrs by cell counting analysis; settings: at 10 µM
SN12C = assay: Growth inhibition of human SN12C cells after 48 hrs by cell counting analysis; settings: at 10 µM
SK-MEL-5 = assay: Growth inhibition of human SK-MEL-5 cells after 48 hrs by cell counting analysis; settings: at 10 µM
PC-3 = assay: Growth inhibition of human PC3 cells after 48 hrs by cell counting analysis; settings: at 10 µM
[1] = Antiproliferative activity against human renal cancer cells after 48 hrs by cell counting analysis; settings: Cancer cell lines
SK-MEL-2 = assay: Growth inhibition of human SK-MEL-2 cells after 48 hrs by cell counting analysis; settings: at 10 µM
SF-539 = assay: Growth inhibition of human SF539 cells after 48 hrs by cell counting analysis; settings: at 10 µM
[2] = Antiproliferative activity against human breast cancer cells after 48 hrs by cell counting analysis; settings: Cancer cell lines
IGROV-1 = assay: Growth inhibition of human IGROV1 cells after 48 hrs by cell counting analysis; settings: at 10 µM
OVCAR-5 = assay: Growth inhibition of human OVCAR5 cells after 48 hrs by cell counting analysis; settings: at 10 µM
NCI-H23 = assay: Growth inhibition of human NCI-H23 cells after 48 hrs by cell counting analysis
CCRF-CEM = assay: Growth inhibition of human CCRF-CEM cells after 48 hrs by cell counting analysis; settings: at 10 µM
EKVX = assay: Growth inhibition of human EKVX cells after 48 hrs by cell counting analysis; settings: at 10 µM
SNB-19 = assay: Growth inhibition of human SNB19 cells after 48 hrs by cell counting analysis; settings: at 10 µM
NCI-H522 = assay: Growth inhibition of human NCI-H522 cells after 48 hrs by cell counting analysis; settings: at 10 µM
LOX IMVI = assay: Growth inhibition of human LOXIMVI cells after 48 hrs by cell counting analysis; settings: at 10 µM
[3] = Antiproliferative activity against human colon cancer cells after 48 hrs by cell counting analysis; settings: Cancer cell lines
[4] = Antiproliferative activity against human ovarian cancer cells after 48 hrs by cell counting analysis; settings: Cancer cell lines
BT-549 = assay: Growth inhibition of human BT549 cells after 48 hrs by cell counting analysis; settings: at 10 µM
HCT-116 = assay: Growth inhibition of human HCT116 cells after 48 hrs by cell counting analysis; settings: at 10 µM
[5] = Antiproliferative activity against human CNS cancer cells after 48 hrs by cell counting analysis; settings: Cancer cell lines
OVCAR-8 = assay: Growth inhibition of human OVCAR8 cells after 48 hrs by cell counting analysis; settings: at 10 µM
ACHN = assay: Growth inhibition of human ACHN cells after 48 hrs by cell counting analysis; settings: at 10 µM
U-251 = assay: Growth inhibition of human U251 cells after 48 hrs by cell counting analysis; settings: at 10 µM
HOP-62 = assay: Growth inhibition of human HOP62 cells after 48 hrs by cell counting analysis; settings: at 10 µM
[6] = Growth inhibition of human NCI-ADR-RES cells after 48 hrs by cell counting analysis; settings: at 10 µM
M14 = assay: Growth inhibition of human M14 cells after 48 hrs by cell counting analysis; settings: at 10 µM
HL-60 = assay: Growth inhibition of human HL60 cells after 48 hrs by cell counting analysis; settings: at 10 µM
UACC-257 = assay: Growth inhibition of human UACC257 cells after 48 hrs by cell counting analysis; settings: at 10 µM
UACC-62 = assay: Growth inhibition of human UACC62 cells after 48 hrs by cell counting analysis; settings: at 10 µM
SF-268 = assay: Growth inhibition of human SF268 cells after 48 hrs by cell counting analysis; settings: at 10 µM
SR = assay: Growth inhibition of human SR cells after 48 hrs by cell counting analysis; settings: at 10 µM
[7] = Antiproliferative activity against human non-small cell lung cancer cells after 48 hrs by cell counting analysis; settings: Cancer cell lines
MDA-MB-468 = assay: Growth inhibition of human MDA-MB-468 cells after 48 hrs by cell counting analysis
TK-10 = assay: Growth inhibition of human TK10 cells after 48 hrs by cell counting analysis
RPMI-8226 = assay: Growth inhibition of human RPMI8226 cells after 48 hrs by cell counting analysis; settings: at 10 µM
HT-29 = assay: Growth inhibition of human HT-29 cells after 48 hrs by cell counting analysis; settings: at 10 µM
OVCAR-3 = assay: Growth inhibition of human OVCAR3 cells after 48 hrs by cell counting analysis; settings: at 10 µM
HCT-15 = assay: Growth inhibition of human HCT15 cells after 48 hrs by cell counting analysis; settings: at 10 µM
UO-31 = assay: Growth inhibition of human UO31 cells after 48 hrs by cell counting analysis; settings: at 10 µM
MDA-MB-231 = assay: Growth inhibition of human MDA-MB-231 cells after 48 hrs by cell counting analysis; settings: at 10 µM
SF-295 = assay: Growth inhibition of human SF295 cells after 48 hrs by cell counting analysis; settings: at 10 µM
HOP-92 = assay: Growth inhibition of human HOP92 cells after 48 hrs by cell counting analysis; settings: at 10 µM
CAKI-1 = assay: Growth inhibition of human Caki1 cells after 48 hrs by cell counting analysis; settings: at 10 µM
MDA-MB-435 = assay: Growth inhibition of human MDA-MB-435 cells after 48 hrs by cell counting analysis; settings: at 10 µM
[8] = Antiproliferative activity against human leukemia cells after 48 hrs by cell counting analysis
KM12 = assay: Growth inhibition of human KM12 cells after 48 hrs by cell counting analysis; settings: at 10 µM
SNB-75 = assay: Growth inhibition of human SNB75 cells after 48 hrs by cell counting analysis; settings: at 10 µM
SK-OV-3 = assay: Growth inhibition of human SKOV3 cells after 48 hrs by cell counting analysis; settings: at 10 µM
[9] = Antiproliferative activity against human prostate cancer cells after 48 hrs by cell counting analysis; settings: Cancer cell lines
NCI-H226 = assay: Growth inhibition of human NCI-H226 cells after 48 hrs by cell counting analysis; settings: at 10 µM
[10] = Growth inhibition of human NCI-322M cells after 48 hrs by cell counting analysis; settings: at 10 µM
MOLT-4 = assay: Growth inhibition of human MOLT4 cells after 48 hrs by cell counting analysis; settings: at 10 µM
[11] = Antiproliferative activity against human melanoma cells after 48 hrs by cell counting analysis
T47D = assay: Growth inhibition of human T47D cells after 48 hrs by cell counting analysis; settings: at 10 µM
Malme-3M = assay: Growth inhibition of human MALME-3M cells after 48 hrs by cell counting analysis; settings: at 10 µM
SW-620 = assay: Growth inhibition of human SW620 cells after 48 hrs by cell counting analysis; settings: at 10 µM
RXF 393 = assay: Growth inhibition of human RXF393 cells after 48 hrs by cell counting analysis; settings: at 10 µM
MCF7 = assay: Growth inhibition of human MCF7 cells after 48 hrs by cell counting analysis; settings: at 10 µM
K562 = assay: Growth inhibition of human K562 cells after 48 hrs by cell counting analysis; settings: at 10 µM
[12] = read-out: LC50 (the source's name)

**Q.** Which results are given for `Cc1ccc(-c2csc(NC(=O)CCCl)n2)cc1`?
**A.** growth inhibition (GI) (A549): 77.3%; growth inhibition (GI) (SK-MEL-28): 31%; growth inhibition (GI) (HCC 2998): 22.5%; growth inhibition (GI) (OVCAR-4): 81.5%; growth inhibition (GI) (SN12C): 33.2%; growth inhibition (GI) (SK-MEL-5): 16.6%; growth inhibition (GI) (PC-3): 69.5%; GI50 [1]: 2.8 µM; TGI [1]: 12.5 µM; CC50 [1, 12]: 39.3 µM; growth inhibition (GI) (SK-MEL-2): 54.2%; growth inhibition (GI) (SF-539): 25.2%; GI50 [2]: 3.3 µM; TGI [2]: 32.3 µM; CC50 [2, 12]: 62.1 µM; growth inhibition (GI) (IGROV-1): 63.1%; growth inhibition (GI) (OVCAR-5): 29.3%; growth inhibition (GI) (NCI-H23): Active; growth inhibition (GI) (CCRF-CEM): 88.3%; growth inhibition (GI) (EKVX): 50.3%; growth inhibition (GI) (SNB-19): 73.1%; growth inhibition (GI) (NCI-H522): 41%; growth inhibition (GI) (LOX IMVI): 45.1%; GI50 [3]: 3.2 µM; TGI [3]: 11.9 µM; CC50 [3, 12]: 39.2 µM; GI50 [4]: 4.8 µM; TGI [4]: 31.3 µM; CC50 [4, 12]: 61.1 µM; growth inhibition (GI) (BT-549): 72.3%; growth inhibition (GI) (HCT-116): 46.2%; GI50 [5]: 4.8 µM; TGI [5]: 17.6 µM; CC50 [5, 12]: 50.2 µM; growth inhibition (GI) (OVCAR-8): 60.6%; growth inhibition (GI) (ACHN): 45.1%; growth inhibition (GI) (U-251): 48.5%; growth inhibition (GI) (HOP-62): 16.2%; growth inhibition (GI) [6]: 55.8%; growth inhibition (GI) (M14): 56.1%; growth inhibition (GI) (HL-60): 41.4%; growth inhibition (GI) (UACC-257): 41.3%; growth inhibition (GI) (UACC-62): 41.8%; growth inhibition (GI) (SF-268): 46.3%; growth inhibition (GI) (SR): 88.5%; GI50 [7]: 6.3 µM; TGI [7]: 20.3 µM; CC50 [7, 12]: 61.5 µM; growth inhibition (GI) (MDA-MB-468): Active; growth inhibition (GI) (TK-10): Active; growth inhibition (GI) (RPMI-8226): 80.9%; growth inhibition (GI) (HT-29): 21%; growth inhibition (GI) (OVCAR-3): 45.3%; growth inhibition (GI) (HCT-15): 25.9%; growth inhibition (GI) (UO-31): 61.3%; growth inhibition (GI) (MDA-MB-231): 53.5%; growth inhibition (GI) (SF-295): 30.2%; growth inhibition (GI) (HOP-92): 50.5%; growth inhibition (GI) (CAKI-1): 55.6%; growth inhibition (GI) (MDA-MB-435): 36.9%; GI50 [8]: 2 µM; TGI [8]: 21.5 µM; CC50 [8, 12]: > 100 µM; growth inhibition (GI) (KM12): 82.4%; growth inhibition (GI) (SNB-75): 34.6%; growth inhibition (GI) (SK-OV-3): 63%; GI50 [9]: 3.8 µM; TGI [9]: 16.8 µM; CC50 [9, 12]: 63.4 µM; growth inhibition (GI) (NCI-H226): 22%; growth inhibition (GI) [10]: 55.9%; growth inhibition (GI) (MOLT-4): 43.3%; GI50 [11]: 4.2 µM; TGI [11]: 13.4 µM; CC50 [11, 12]: 44.3 µM; growth inhibition (GI) (T47D): 55.2%; growth inhibition (GI) (Malme-3M): 29.1%; growth inhibition (GI) (SW-620): 65.2%; growth inhibition (GI) (RXF 393): 43.8%; growth inhibition (GI) (MCF7): 65.9%; growth inhibition (GI) (K562): 21.1%
